Here are results for 1 molecule from patent publication US12662473B2, “Inhibitors for programmed cell necrosis and preparation method therefor and use thereof” (SHANGHAI INSTITUTE OF ORGANIC CHEMISTRY, CHINESE ACADEMY OF …, priority 2019, dated 2026).

One assay concerns RIPK1 (S161A). Nature of the assay: Effect of RIPK1 S161A mutation on compound activity (293T overexpression; S161A MEFs cell death with TNFα and 5z7). Format: cell-based, murine. The conditions noted are these: FIG. 5. The text has this:
The biological test protocol used in this experiment was to test the effect of mutation of serine at position 161 of RIPK1 to alanine on the activity of compound QY-1-98. The experiment was verified by two aspects. On the one hand, after RIPK1 was overexpressed in 293T cells, RIPK1 would be activated by autophosphorylation, and the activity of small molecules to inhibit the phosphorylation of RIPK1 was detected at this time. On the other hand, in murine-derived MEFs cells with RIPK1 knockout, and RIPK1 (S161A) put back, RIPK1-dependent cell apoptosis can be induced by using TNFα and 5z7 (TAK1 inhibitor), and the effect of the compound to inhibit cell death was detected at this time.
1. 293T cells overexpressing RIPK1 experiment: RIPK1 plasmid with N-terminal 3×FLAG was constructed on PcDNA vector. 293T cells were digested, and then diluted to 8×10^5/ml. 1 ml of cells were added to each well of a 12-well cell culture plate, and the plate was placed in a cell culture incubator (37° C., 5% CO2) for 12 hours before transfection. […] After cooling, the samples were detected by western-blot after electrophoresis on SDS-PAGE gel (9%). […] The plate was placed in cell incubator (37° C., 5% CO2) for 14 h, 15 μl of Cell Titer-Glo solution was added to each well, the mixture was incubated at room temperature for 30 min, and the luminescence value was detected to measure the level of intracellular ATP. […]

For a further assay, the system named is L929 cells. The experiment in a line: TNF-induced programmed cell necrosis inhibition, Cell Titer-Glo viability. Format: cell-based, mouse. The conditions noted are these: Mus musculus, read-out: EC50 inhibitory activity on programmed cell necrosis. In short, it runs like this: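 L929 mouse fibroblasts were pretreated 1 h at 37 °C with compound plus Smac (500 nM solution added), then stimulated with TNFα (500 ng/mL solution added) for 14 h. Viability was read as ATP by CellTiter-Glo luminescence, with unstimulated DMSO wells set to 100%, and EC50 values were calculated.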

pEC50: −log10 of the molar value. Read-outs that look alike come from different tables or passages of the source.

Usually pEC50 stands for the negative decadic logarithm of the EC50, by convention in mol/L.

As to `Cc1noc([C@@H]2CCCN2C(=O)C(C)(C)Oc2ccc(Cl)cc2)n1` [QY-1-98], the “inhibition of programmed cell necrosis after mutation of serine 161 of RIPK1 to alanine” value in the assay with RIPK1 (S161A) is listed as “can still inhibit the programmed cells necrosis”. In addition, the pEC50 in the assay on L929 cells (L929, 14 h, L929 cells (mouse), TNFa + SM164) is 5.89; in the assay with L929 cells (L929, L929 cells (mouse), TNFa), 6.67.
